Drawing on patent US20260274892A1, “MACROCYCLIC BROAD SPECTRUM ANTIBIOTICS” (RQx Pharmaceuticals, Inc., priority 2017, published 2026), this text covers MIC for five molecules.

This experiment relates to Escherichia coli ATCC 25922. The experiment is described as follows: Minimum inhibitory concentration (MIC), CLSI broth micro-dilution, E. coli. The note with it: Escherichia coli, ATCC25922, 22 h, Table 7, cation adjusted Mueller Hinton Broth + 0.002% Tween-80, 35° C. The format is cell-based. The method, boiled down:
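Antibacterial potency is measured as MIC by the CLSI broth dilution method. Bacteria at OD600 0.0005 in Tween-80-supplemented cation-adjusted Mueller Hinton broth face ten twofold compound dilutions for 22 h at 35° C.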
In general terms: Dilution methods test growth across graded concentrations, often in twofold steps.

As for `Cc1nc(-c2ccc(C(C)(C)C)cc2)nc(C)c1C(=O)N[C@@H](CCN)C(=O)N(C)[C@@H]1C(=O)N[C@@H](C)C(=O)N[C@H](C(=O)NCC#N)Cc2ccc(OC(C)CN)c(c2)-c2cc1ccc2O` (mixture of isomers) [Compound 606, rac-(8S,11S,14S)-3-(2-amino-1-methyl-ethoxy)-N-(cyanomethyl)-18-hydroxy-11-methyl-14-[methyl-[rac-(2S)-4-amino-2-[[2-(4-tert-butylphenyl)-4,6-dimethyl-pyrimidine-5-carbonyl]amino]butanoyl]amino]-10,13-dioxo-9,12-diazatricyclo[13.3.1.12,6]icosa-1(18),2(20),3,5,15(19),16-hexaene-8-carboxamide], the MIC came to 0.5 µM.
To `Cc1nc(-c2ccc(C(C)(C)C)cc2)nc(C)c1C(=O)N[C@@H](CCN)C(=O)N(C)[C@@H]1C(=O)N[C@@H](C)C(=O)N[C@H](C(=O)NCC#N)Cc2ccc(O)c(c2)-c2cc1ccc2OC(C)CN` (mixture of isomers) [Compound 607, rac-(8S,11S,14S)-18-(2-amino-1-methyl-ethoxy)-N-(cyanomethyl)-3-hydroxy-11-methyl-14-[methyl-[rac-(2S)-4-amino-2-[[2-(4-tert-butylphenyl)-4,6-dimethyl-pyrimidine-5-carbonyl]amino]butanoyl]amino]-10,13-dioxo-9,12-diazatricyclo[13.3.1.12,6]icosa-1(18),2(20),3,5,15(19),16-hexaene-8-carboxamide] belongs 0.5 µM; to `Cc1nc(-c2ccc(C(C)(C)C)cc2)nc(C)c1C(=O)N[C@@H](CCN)C(=O)N(C)[C@@H]1C(=O)N[C@@H](C)C(=O)N[C@H](C(=O)NCC#N)Cc2ccc(O)c(c2)-c2cc1ccc2OC1CCNCC1` (racemic) [Compound 608, rac-(8S,11S,14S)-N-(cyanomethyl)-3-hydroxy-11-methyl-14-[methyl-[rac-(2S)-4-amino-2-[[2-(4-tert-butylphenyl)-4,6-dimethyl-pyrimidine-5-carbonyl]amino]butanoyl]amino]-10,13-dioxo-18-(4-piperidyloxy)-9,12-diazatricyclo[13.3.1.12,6]icosa-1(18),2(20),3,5,15(19),16-hexaene-8-carboxamide], 0.38 µM; to `Cc1nc(-c2ccc(C(C)(C)C)cc2)nc(C)c1C(=O)N[C@@H](CCN)C(=O)N(C)[C@@H]1C(=O)N[C@@H](C)C(=O)N[C@H](C(=O)NCC#N)Cc2ccc(OC3CCNCC3)c(c2)-c2cc1ccc2O` (racemic) [Compound 609, rac-(8S,11S,14S)-N-(cyanomethyl)-18-hydroxy-11-methyl-14-[methyl-[rac-(2S)-4-amino-2-[[2-(4-tert-butylphenyl)-4,6-dimethyl-pyrimidine-5-carbonyl]amino]butanoyl]amino]-10,13-dioxo-3-(4-piperidyloxy)-9,12-diazatricyclo[13.3.1.12,6]icosa-1(18),2(20),3,5,15(19),16-hexaene-8-carboxamide], 0.5 µM.
To `Cc1nc(-c2ccc(C(C)(C)C)cc2)nc(C)c1C(=O)N[C@@H](CCN)C(=O)N(C)[C@@H]1C(=O)N[C@@H](C)C(=O)N[C@H](C(=O)NCC#N)Cc2ccc(OCC(CN)CN)c(c2)-c2cc1ccc2O` (racemic) [Compound 610, rac-(8S,11S,14S)-3-[3-amino-2-(aminomethyl)propoxy]-N-(cyanomethyl)-18-hydroxy-11-methyl-14-[methyl-[rac-(2S)-4-amino-2-[[2-(4-tert-butylphenyl)-4,6-dimethyl-pyrimidine-5-carbonyl]amino]butanoyl]amino]-10,13-dioxo-9,12-diazatricyclo[13.3.1.12,6]icosa-1(18),2(20),3,5,15(19),16-hexaene-8-carboxamide] belongs 0.19 µM.

As a reminder, the MIC is the smallest concentration in the dilution series that meets the test's criterion for growth inhibition.
